Among the data in US12391679B2, “Benzamide-substituted bicyclic imidazo- and pyrazolo-fused -pyridine, -pyrimide, and -pyridazine compounds for treatment of inflammatory diseases” (ONCO3R Therapeutics BV, priority 2019, dated 2025) are IC50, EC50 and maximal fold induction values, retold here.

Structures are written as SMILES. Read-outs that look alike come from different tables or passages of the source. Where only a bound is given, the exact number is not on record here.

The target in assay [1] is T1, SIK2 (Homo sapiens, UniProt Q9H0K1).
T1 construct: purchased ThermoFisher Scientific PV4792
T1 sequence (Q9H0K1 whole entry): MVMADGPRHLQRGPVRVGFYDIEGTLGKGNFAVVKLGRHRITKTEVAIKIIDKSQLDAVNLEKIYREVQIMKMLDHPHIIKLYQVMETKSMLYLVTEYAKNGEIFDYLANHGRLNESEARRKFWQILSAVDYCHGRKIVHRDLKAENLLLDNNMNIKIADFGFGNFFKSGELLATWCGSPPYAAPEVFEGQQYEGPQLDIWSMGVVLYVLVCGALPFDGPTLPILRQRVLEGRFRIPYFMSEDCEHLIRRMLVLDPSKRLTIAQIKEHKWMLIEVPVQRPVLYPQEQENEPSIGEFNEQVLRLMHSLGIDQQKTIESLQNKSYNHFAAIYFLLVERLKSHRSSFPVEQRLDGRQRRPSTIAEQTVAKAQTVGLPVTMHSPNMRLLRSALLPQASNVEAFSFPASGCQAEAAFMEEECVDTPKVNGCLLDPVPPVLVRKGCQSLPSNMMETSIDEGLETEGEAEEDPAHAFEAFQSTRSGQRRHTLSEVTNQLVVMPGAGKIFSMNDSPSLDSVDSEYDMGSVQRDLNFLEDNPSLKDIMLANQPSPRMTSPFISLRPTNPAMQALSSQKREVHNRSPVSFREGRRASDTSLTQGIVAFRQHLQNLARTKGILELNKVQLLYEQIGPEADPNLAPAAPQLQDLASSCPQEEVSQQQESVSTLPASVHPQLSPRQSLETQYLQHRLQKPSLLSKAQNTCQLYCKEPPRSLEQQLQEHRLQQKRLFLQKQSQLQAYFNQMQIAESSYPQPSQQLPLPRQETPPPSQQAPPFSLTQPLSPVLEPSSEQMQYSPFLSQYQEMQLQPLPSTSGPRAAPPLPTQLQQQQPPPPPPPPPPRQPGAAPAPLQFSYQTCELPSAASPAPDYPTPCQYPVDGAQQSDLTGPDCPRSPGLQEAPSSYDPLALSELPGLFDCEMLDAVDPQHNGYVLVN
Kind of assay: ADP-Glo kinase assay, SIK2. The assay is classed as biochemical. In a few lines:
(§1)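 Kinase reactions ran 120 min at room temperature after ATP addition to enzyme-substrate mix. Remaining ATP was depleted (40 min) and ADP converted to ATP for luciferase detection (30 min), signal rising with activity. Final 1% DMSO and 10 μM staurosporine served as negative and positive controls.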

The test system of assay [2] is LPS-induced TNFα in monocytes. Put plainly: Monocytes assay: LPS-triggered TNFα (ELISA). The assay is classed as cell-based, human. Conditions: Homo sapiens, Monocyte, LPS-triggered TNFα inhibition. In a few lines:
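TNFα secretion was triggered with 200 ng/mL LPS for 4 h in human blood CD14+ monocytes after 1 h compound pretreatment at 37 °C, with 0.2% final DMSO. Supernatants were analysed by streptavidin-HRP/luminol ELISA, and percentage inhibition at each concentration was derived relative to control wells.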
On the technique in general: ELISA stands for enzyme-linked immunosorbent assay.

In assay [3] the target is T2, SIK3 (Homo sapiens, UniProt Q9Y2K2).
T2 construct: purchased SignalChem S12-11G-100
T2 sequence (Q9Y2K2 59-365 limits assumed): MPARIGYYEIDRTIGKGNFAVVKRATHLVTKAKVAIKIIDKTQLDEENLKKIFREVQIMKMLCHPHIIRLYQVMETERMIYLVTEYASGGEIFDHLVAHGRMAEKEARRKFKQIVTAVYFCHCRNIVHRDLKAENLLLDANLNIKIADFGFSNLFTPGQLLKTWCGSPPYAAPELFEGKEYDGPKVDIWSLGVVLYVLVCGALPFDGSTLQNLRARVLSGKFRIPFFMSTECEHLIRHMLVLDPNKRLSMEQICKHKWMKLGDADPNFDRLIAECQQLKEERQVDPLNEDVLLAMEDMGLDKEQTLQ
Kind of assay: ADP-Glo kinase assay, SIK3. The assay is classed as biochemical. In outline:
as §1
Background: ADP-Glo turns the ADP formed in a reaction into a luminescent signal.

Assay [4] has as its target T3, SIK1 (Homo sapiens, UniProt P57059).
T3 construct: purchased Carna Biosciences 02-131
Put plainly: ADP-Glo kinase assay, SIK1. It is filed as biochemical. In a few lines:
as §1

The subject of assay [5] is LPS triggered IL-10 secretion in monocytes. Kind of assay: Monocytes assay: LPS-triggered IL-10 (ELISA). The assay is classed as cell-based, human. Conditions: Homo sapiens, Monocyte, LPS-triggered IL-10 induction, median maximal fold change vs LPS only, read-out: IL-10 FCmax median. The procedure:
This assay evaluates illustrative compounds of the invention for their inhibition of LPS-induced TNFα and LPS triggered IL-10 secretion in monocytes.
PBMCs are isolated from human blood samples (buffycoats). The buffy coat is aseptically transferred into a 50 mL Falcon tube, and diluted 1/2 in PBS. Falcon tubes are filled with 20 mL Lymphoprep™, on top of which 25 mL of the buffy coat is carefully added, tubes are centrifuged for 35 min at 400 g in temperature controlled centrifuge, without brake, at 25° C. PBMCs are aspirated from the white interface layer between sample and Lymphoprep™. PBMCs are washed five times in PBS.
PBMCs are centrifuged at 300×g for 10 min and resuspended at a density of 1.0*10^7 cells/80 μL Miltenyi buffer (PBS, pH 7.4, 1% FBS, 2 mM EDTA).
Starting from this point of the protocol all steps are performed on ice. 20 μL of CD14+ micro-beads are added per 1.0*10^7 cells, the tube is mixed and incubated for 15 min in the fridge at 4° C. Cell suspension volume is adjusted to total volume of 100 mL using Miltenyi buffer, mixed gently and subsequently centrifuged for 10 min at 300×g. Supernatant is discarded and cell pellet is resuspended in 12 mL of Miltenyi buffer.
Four LS columns are placed in the MACS Separator (magnet) from Miltenyi Biotec, and are prewet by rinsing with 3 mL of MACS buffer per column. Three mL of cell suspension is added onto the column (max 1*10^8 of labelled cells/column), and columns are subsequently washed 3 times with 3 mL of Miltenyi buffer.
The columns are removed from the magnets, and 5 mL of Miltenyi buffer are added to the column to flush out the CD14+ fraction by pushing the plunger into the column. The flushed fractions are collected in a fresh 50 mL Falcon and volume is adjusted to 30 mL using Miltenyi buffer, cells are centrifuged for 10 min at 300×g. The obtained cell pellet is resuspended in 10 mL RPMI w/o FBS, and cell density is determined using a hematologic analyser (Sysmex XS-500i).
A compound dilution plate is made in 100% DMSO by 3-fold dilution of 10 mM stock solution. An intermediate dilution plate (10× final concentration) is made by diluting the compound dilution plate 50-fold in RPMI medium.
10 μL of the 10× final concentration compound is added to the cells and incubated for 1 h at 37° C. before addition of trigger. No trigger conditions/trigger conditions are spiked with equal final DMSO concentrations of 0.2% DMSO. 10 μL of 10×LPS (final conc. 200 ng/mL) solution are added to all wells except for the ‘no trigger wells’ where 10 μL medium is added. Supernatant is collected after 4 h of LPS triggering.
A Lumitrac 600 Greiner 384-well plate is coated with 40 μL of capture antibody (final concentration of 1 μg/mL in 1×PBS) and stored overnight at 4° C. The next day the plate is washed three times with PBST (PBS+0.05% Tween20) and once with PBS followed by the addition of 100 μL of blocking buffer (1% BSA-5% Sucrose) and plates are sealed and incubated for at least 4 h at RT. After washing the plate once with PBST and once with PBS, 40 μL of standard or sample are added (IL-10 standard curve is prepared using a 1/2 serial dilution starting from 2000 pg/mL; dilutions are made in dilution buffer (PBS+1% BSA)). […] Plates are washed twice with PBST, and once with PBS, whereafter 35 μL of Strep-HRP conjugate (0.5 μg/mL final concentration diluted in dilution buffer) is added. Plates are incubated in the dark, at RT for at least 45 min but no longer than 1 h. Plates are washed twice with PBST, and once with PBS. Thereafter, 50 μL of luminol substrate is added to each well (prepared according to manufacturer's instructions), and incubated for 5 min at RT protected from light.
To quantify these increases, fold changes (FC) compared to ‘LPS only’ are calculated for each concentration tested and the maximal FC is calculated (IL-10 FCmax): […]

Setting [6] is: ADP-Glo, AMARA 45 μM, 5 μM ATP, 120 min, average IC50.

T3 sequence (P57059 whole entry): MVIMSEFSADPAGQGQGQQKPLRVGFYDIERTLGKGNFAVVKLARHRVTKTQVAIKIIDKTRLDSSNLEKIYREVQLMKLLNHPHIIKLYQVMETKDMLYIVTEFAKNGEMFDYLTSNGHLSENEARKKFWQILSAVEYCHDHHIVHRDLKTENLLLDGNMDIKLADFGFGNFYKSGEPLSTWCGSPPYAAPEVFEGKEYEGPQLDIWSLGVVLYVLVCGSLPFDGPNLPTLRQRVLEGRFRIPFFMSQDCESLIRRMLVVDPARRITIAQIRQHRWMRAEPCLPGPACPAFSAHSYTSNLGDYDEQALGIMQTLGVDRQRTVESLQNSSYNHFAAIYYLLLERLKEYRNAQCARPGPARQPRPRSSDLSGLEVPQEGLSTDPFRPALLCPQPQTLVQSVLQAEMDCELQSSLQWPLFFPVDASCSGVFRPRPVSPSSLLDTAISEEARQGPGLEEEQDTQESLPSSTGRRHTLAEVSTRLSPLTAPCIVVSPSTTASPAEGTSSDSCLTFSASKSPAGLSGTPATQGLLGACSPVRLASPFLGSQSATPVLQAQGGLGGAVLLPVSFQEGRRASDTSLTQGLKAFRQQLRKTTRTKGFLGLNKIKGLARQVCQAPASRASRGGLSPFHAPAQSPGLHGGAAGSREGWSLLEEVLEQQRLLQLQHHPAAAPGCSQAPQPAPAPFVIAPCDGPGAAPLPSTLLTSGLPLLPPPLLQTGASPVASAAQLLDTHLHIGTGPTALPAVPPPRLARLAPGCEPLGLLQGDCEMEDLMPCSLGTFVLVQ

The term IC50 denotes the point on the concentration scale where inhibition reaches its midpoint. The EC50 is the midpoint of the concentration-response curve. High values mean weaker potency, low ones greater potency. For `COc1cc(-c2cnc3cc(C(C)(C)F)ccn23)cc(OC(F)F)c1C(=O)NC1CC1` [Cpd 133, N-cyclopropyl-2-(difluoromethoxy)-4-[7-(1-fluoro-1-methyl-ethyl)imidazo[1,2-a]pyridin-3-yl]-6-methoxy-benzamide], the IC50 is 100 to 500 nM in assay [1], 10 to 100 nM in assay [3] and 100 to 500 nM in assay [4]. The EC50 in assay [2] lay within 100 to 1000 nM. Besides, the maximal fold induction in assay [5] fell in the range of 1.5 to 4.5.
`COc1cc(-c2cnc3cc(C(C)(C)C#N)ccn23)cc(OC(F)F)c1C(=O)N[C@@H]1C[C@H]1F` (racemic) [Cpd 225, 4-[7-(1-cyano-1-methyl-ethyl)imidazo[1,2-a]pyridin-3-yl]-2-(difluoromethoxy)-N-(2-fluorocyclopropyl)-6-methoxy-benzamide]: the half-maximal inhibitory concentration (IC50) in assay [1] is more than 500 nM; in assay [3], 0.01 to 10 nM; in assay [4], more than 500 nM. In assay [2], this molecule returned an EC50 of 100 to 1000 nM. The maximal fold induction in assay [5] was less than 1.5.
Regarding `COc1cc(-c2cnc3cc(C(C)(O)CN4CC(F)(F)C4)ccn23)cc(OC(F)F)c1C(=O)NC1CC1` (stereo not shown) [Cpd 191, N-cyclopropyl-4-[7-[2-(3,3-difluoroazetidin-1-yl)-1-hydroxy-1-methyl-ethyl]imidazo[1,2-a]pyridin-3-yl]-2-(difluoromethoxy)-6-methoxy-benzamide], the values for the concentration for half-maximal inhibition (IC50) in assay [1], in assay [3] and in assay [4] were more than 500 nM, 10 to 100 nM and more than 500 nM, respectively. For the same molecule, in assay [2], the EC50 lay in the range of 1000 to 5000 nM. Besides, the maximal fold induction in assay [5] was less than 1.5.
As to `COCC(C)(O)c1ccn2c(-c3cc(OC)c(C(=O)NC4CC4)c(OC(F)F)c3)cnc2c1` (stereo not shown) [Cpd 182, N-cyclopropyl-2-(difluoromethoxy)-4-[7-(1-hydroxy-2-methoxy-1-methyl-ethyl)imidazo[1,2-a]pyridin-3-yl]-6-methoxy-benzamide], the IC50 in assay [1] is more than 500 nM; in assay [3], 10 to 100 nM; in assay [4] it was more than 500 nM. This molecule displayed an EC50 in assay [2] of 100 to 1000 nM. Further, the maximal fold induction in assay [5] is less than 1.5.
With `COc1cc(-c2cnn3cc(C4COCCO4)ccc23)cc(OC(F)F)c1C(=O)N[C@@H]1C[C@@H]1F` (stereo partly drawn) [Cpd 240, 2-(difluoromethoxy)-4-[6-(1,4-dioxan-2-yl)pyrazolo[1,5-a]pyridin-3-yl]-N-[(1R,2S)-2-fluorocyclopropyl]-6-methoxy-benzamide], the IC50 was 10 to 100 nM in assay [1] (setting [6]), 0.01 to 10 nM in assay [3] (setting [6]) and 100 to 500 nM in assay [4] (setting [6]). The EC50 in assay [2] is 100 to 1000 nM. Further, the maximal fold induction in assay [5] lay in the range of 1.5 to 4.5.
Regarding `[2H]C([2H])([2H])C(C#N)(c1ccn2c(-c3cc(OC)c(C(=O)NC4CC4)c(OC(F)F)c3)cnc2c1)C([2H])([2H])[2H]` [Cpd 230, 4-[7-[1-cyano-2,2,2-trideuterio-1-(trideuteriomethyl)ethyl]imidazo[1,2-a]pyridin-3-yl]-N-cyclopropyl-2-(difluoromethoxy)-6-methoxy-benzamide], the IC50 in assay [1] is 100 to 500 nM; in assay [3], 0.01 to 10 nM; in assay [4], more than 500 nM. In assay [2], this molecule yielded an EC50 of 100 to 1000 nM. Besides, in assay [5], the maximal fold induction was less than 1.5.
With `COc1cc(-c2cnc3cc(C4(O)COC4)ccn23)cc(OC(F)F)c1C(=O)NC1CC1` [Cpd 177, N-cyclopropyl-2-(difluoromethoxy)-4-[7-(3-hydroxyoxetan-3-yl)imidazo[1,2-a]pyridin-3-yl]-6-methoxy-benzamide], the concentration for half-maximal inhibition (IC50) was more than 500 nM in assay [1], 10 to 100 nM in assay [3] and more than 500 nM in assay [4]. The EC50 in assay [2] lay within 100 to 1000 nM. In assay [5], the maximal fold induction was less than 1.5.
Turning to `COc1cc(-c2cnc3cc(C4CCOCC4)c(OCCO)cn23)cc(OC(F)F)c1C(=O)NC1CC1` [Cpd 183, N-cyclopropyl-2-(difluoromethoxy)-4-[6-(2-hydroxyethoxy)-7-tetrahydropyran-4-yl-imidazo[1,2-a]pyridin-3-yl]-6-methoxy-benzamide], the concentration for half-maximal inhibition (IC50) is 100 to 500 nM in assay [1], 10 to 100 nM in assay [3] and more than 500 nM in assay [4]. The same molecule registered a concentration for a half-maximal effect (EC50) in assay [2] of 1000 to 5000 nM. Moreover, the maximal fold induction in assay [5] is less than 1.5.
The corresponding values for `COc1cn2c(-c3cc(OC)c(C(=O)NC4CC4)c(OC(F)F)c3)cnc2cc1C(C)(C)C#N` [Cpd 200, 4-[7-(1-cyano-1-methyl-ethyl)-6-methoxy-imidazo[1,2-a]pyridin-3-yl]-N-cyclopropyl-2-(difluoromethoxy)-6-methoxy-benzamide] are 100 to 500 nM, 10 to 100 nM, more than 500 nM, 100 to 1000 nM and less than 1.5.
The corresponding values for `COCC(C)(C)c1ccc2c(-c3cc(OC)c(C(=O)NC4CC4)c(OC(F)F)c3)cnn2c1` [Cpd 238, N-cyclopropyl-2-(difluoromethoxy)-6-methoxy-4-[6-(2-methoxy-1,1-dimethyl-ethyl)pyrazolo[1,5-a]pyridin-3-yl]benzamide] are more than 500 nM, 10 to 100 nM, more than 500 nM, 100 to 1000 nM and less than 1.5.
The corresponding values for `COc1cc(-c2cnc3cc(C(C)(O)Cn4ccnc4)ccn23)cc(OC(F)F)c1C(=O)NC1CC1` (stereo not shown) [Cpd 181, N-cyclopropyl-2-(difluoromethoxy)-4-[7-(1-hydroxy-2-imidazol-1-yl-1-methyl-ethyl)imidazo[1,2-a]pyridin-3-yl]-6-methoxy-benzamide] are more than 500 nM, 10 to 100 nM, more than 500 nM, 1000 to 5000 nM and less than 1.5.
